# Laboratory results reported in patent US20170280722A1, “COMPOSITIONS AND METHODS FOR CONTROL OF SAND FLIES AND OTHER BLOOD SUCKING INSECTS” (GENESIS LABORATORIES, INC., priority 2010, published 2017).
# Assays:
# [1] = tested on: P. argentipes 1st instar larvae; test: Larval bioassay with feces of insecticide treated R. rattus (feed through); assay type: in vivo; settings: for Mean ± SEM survival (days) of P. arg larvae post-exposure / P. argentipes larvae mortality (%): feces of R. rattus day-1 post treatment
# Procedure: In the first study, a feed through study comparing diflubenzuron, fipronil, ivermectin, and eprinomectin was conducted on rats (Rattus rattus). Fecal samples were collected after three (3) consecutive days of administration of the trial products. The efficacy of the drugs administered during the blind study underwent testing in larval bioassays with P. argentipes 1st instar larvae. Commercially available chicken feed was mixed with the appropriate concentrations of each insecticide compound and used as is in the trial.
# Twelve (12) locally purchased rats (Rattus rattus) of mixed sex were utilized in a small study testing the efficacy of four feed through insecticides. Five treatment groups of two rats each were randomly identified and fed diets consisting of locally available chicken feed treated with one of the following compounds: diflubenzuron (0.048%), fipronil (0.015%), ivermectin (0.025%), and eprinomectin (0.01% and 0.025%). Two rats served as control and were fed only chicken feed. Rats were fed 20 g of their assigned diet daily at the same time, with daily consumption and spillage calculated for a period of three (3) days. Sand fly analyses were conducted simultaneously.
# […] Collected feces were dried at approximately 40° C. in an oven then ground into a fine powder utilizing a pestle and mortar and frozen at −20° C. until larval bioassays were initiated.
# Larval bioassay pots were prepared using 48 mm, 100 g round Dibbi jars. Dishes were prepared by burning several small holes into the bottom of the dish with a soldering iron and filling them with a small layer of plaster (¼ to ½ inch depth). Approximately 15-20 holes were punctured into the lids using 24 gauge needles. For simpler mortality counting, pots were quartered and each quadrant numbered using an ultra fine black Sharpie.
# For each individual post-treatment bioassays, thirteen (13) dishes were loaded with 10 day old 1st instar P. argentipes larvae; twelve (12) pots were provided with approximately 0.005 g of the treated feces, with two sample pots per treated bandicoot rat, and one overall control sample fed only standard larval diet. See Table 1 for sample/treatment correlations. Larvae were loaded into bioassay pots and provided with their designated treatment sample. Mortality counts of larvae were conducted every 24 hours post-treatment until 100% mortality, or pupation, was reached.
# [2] = Acceptance and tolerance of imidacloprid diet by sand rats; assay type: in vivo, Psammomys obesus
# Source text: (§1) The test insecticide, imidacloprid at 250 ppm (0.025%) was incorporated into the feed together with orange, yellow, or green dye and fed to rats housed in standard laboratory caging. The treatment groups consisted of 6 males and 9 females; Controls: 3 males and 4 females with a body weight between 125-250 g.
# (§2) DESIGN—Five sand rats were provided the reformulated diet for each of the treatment levels (50 ppm, 100 ppm, 250 ppm). Five sand rats were provided with control diets without imidacloprid. Two additional rats were provided with control diets containing green dye.
# (§3) Feces were collected from the Alpha-Dri bedding for the last 5 days of the 7 day treatment period. Feces were weighed and transferred to a plastic bag labeled with the animal's cage identification number and stored frozen at −20° C.
# P. papatasi larvae = test: Larval bioassay with feces of sand rats fed imidacloprid diet; assay type: in vivo
# Procedure: A second trial was carried out using sand rats (Psammomys obesus) as the carrier of sand flies (P. papatasi) and imidacloprid as the insecticide. This rodent species was targeted since it serves as the source of blood meals for adult sand flies and its feces serves as a platform for larval development in Middle East ecosystems.
# as §1, §2, §3
# Bioassays of the larval groups comprised: four imidacloprid treatments (0, 50, 100, 250 ppm) (number of replicates per assay n=5), one control group (n=8), and one green dye treatment (n=2). These bioassays were conducted with 1st and 2-3rd instar larvae and were repeated three times. Bioassays were conducted in 6 well culture plates (Corning, Inc) with 5 ml of plaster of Paris in the bottom of each well. The plaster was saturated with distilled water before the experiment, and was blotted with filter paper to remove standing water immediately before use. The effect of imidacloprid treatment on 1st and 2nd-3rd instar larvae was tested. The control group was provided using standard larval diet. This allowed comparison of sand fly survival between those feeding on feces from sand rats that fed on non treated feed and those fed on standard sand fly diet. First instar larvae were obtained by adding 50 eggs to each well and allowed to hatch and fed on regular diet for 2-3 days. At this time ca. 0.1 g of crushed pellets or control feed was added. Second-3rd instar larvae were obtained by letting 1st instar larvae grow on standard diet in the wells until moulted. At this, time crushed pellets or control feed (0.1 g) was added. […] The wells of the plate were covered with parafilm which was punctured with a needle to allow for ventilation. The wells were kept in a humidified room (26° C./75% RH) inside a covered tube which contained a saturated sponge. The container was placed in an environmental chamber at 28 C, 90% RH, and a photoperiod of 14:10 (L:D) h. […] Alimentation was noted by observation of the presence of frass in the vials and dark material in the guts of the larvae.
# [3] = cited from earlier work
compound,measurement,setting,value
O=C(NC(=O)c1c(F)cccc1F)Nc1ccc(Cl)cc1 [diflubenzuron],Mean ± SEM survival (days) of P. arg larvae post-exposure,[1]; 480 ppm,9.75 ± 0.71 days
same,P. argentipes larvae mortality (%),[1]; 480 ppm,100%
O=[N+]([O-])NC1=NCCN1Cc1ccc(Cl)nc1 [imidacloprid],Difference in fecal production between treatment groups,[2]; P=0.1199,no significant difference
same,Health of sand rats on diet,"[2]; diets 50, 100, 250 ppm, 7 day treatment",without any apparent health abnormalities
same,Survivorship for 1st instar larvae,"P. papatasi larvae; by day 5, feces from sand rats administered 100 ppm",< 5%
same,Survivorship for 1st instar larvae,"P. papatasi larvae; by day 5, feces from sand rats administered 250 ppm",< 5%
same,Survivorship for 2nd/3rd instar larvae,"P. papatasi larvae; by day 7, feces from sand rats administered 250 ppm",10%
same,Larval mortality,"P. papatasi larvae; by seven days, feces from diets containing 250 ppm",90%
same,Larvicidal effect of feces for 1st instar larvae,P. papatasi larvae; sand rats fed diets of 100 ppm and 250 ppm,rapidly and highly larvicidal
same,Residue in blood,[3]; three days post oral treatment,zero residue
CC1(C)C(C=C(Cl)Cl)C1C(=O)OCc1cccc(Oc2ccccc2)c1 (stereo not shown) [permethrin],Time within which the majority of the product is excreted,"[3]; rodents, oral treatment",≤ 48 h
same,Absorption by the skin,[3]; topical,not readily absorbed by the skin
eprinomectin,Mean ± SEM survival (days) of P. arg larvae post-exposure,[1]; 100 ppm,12.65 ± 0.70 days
same,P. argentipes larvae mortality (%),[1]; 100 ppm,100%
same,Mean ± SEM survival (days) of P. arg larvae post-exposure,[1]; 250 ppm,10.70 ± 0.38 days
same,P. argentipes larvae mortality (%),[1]; 250 ppm,100%
ivermectin,Mean ± SEM survival (days) of P. arg larvae post-exposure,[1]; 250 ppm,7.40 ± 0.11 days
same,P. argentipes larvae mortality (%),[1]; 250 ppm,100%
same,Day of observation by which 100% larval mortality was reached,[1]; feces of R. rattus fed 0.025% in feed,≤ 8 days
